Test results from paper PMC6413085, “A Validated HPLC-MS/MS Assay for 14-O-[(4,6-Diaminopyrimidine-2-yl)thioacetyl] Mutilin in Biological Samples and Its Pharmacokinetic, Distribution and Excretion via Urine and Feces in Rats” (Molecules, 2019).
Like-named read-outs stand apart in the source and are kept apart here.

Experiment: Pharmacokinetic study of DPTM in rats after i.v., i.m. and p.o. administration (HPLC-MS/MS, non-compartmental)
Format: in vivo
Details: Sprague-Dawley, plasma, rat; for Tmax: median (min–max); for bioavailability: read-out: F, absolute bioavailability; for MRT last: read-out: MRT0–t; for CL renal: read-out: CLR(0–t) renal clearance; for Vd: read-out: Vss
Procedure: After administration of three i.v., i.m. and p.o. dose (10, 25 and 75 mg/kg) of DPTM to rats, the pharmacokinetic profiles of DPTM were quantified by the validated HPLC-MS/MS methods. […] Blood samples (approximately 200 µL) were collected into heparinized tubes through an indwelling catheter inserted in the jugular vein [30] at 0.083, 0.166, 0.5, 1, 2, 4, 6, 8, 12 and 24 h after i.v. dosing and at 0.083, 0.166, 0.5, 1, 2, 4, 6, 8, 12, 24 and 48 h after i.m. or p.o. dosing. The samples were immediately centrifuged (4000 rpm for 10 min) and the supernatants were taken out and stored in a freezer at −70 °C until analysis. The drug was extracted with acetonitrile using the condition previously described. Then, an aliquot of the reconstituted extracts was transferred and filtrated through a 0.22-μm cellulose membrane filter and 10 μL was injected into the HPLC-MS/MS system. A non-compartmental model was used to determine the pharmacokinetic parameters of DPTM. Pharmacokinetic parameters, including maximum plasma concentration (Cmax), time (Tmax), area under the plasma concentration versus time curve from zero to last sampling time (AUC0−t) and elimination half-life (t1/2) were calculated using WinNonlin software (version 2.1, Pharsight, Mountain View, CA, USA). The absolute bioavailability was calculated as follows:F = (AUCextravascular/(AUCi.v.) × (dosei.v./doseextravascular) × 100%. The data are presented as mean ± standard deviation (SD) except for Tmax values using median (minimum value–maximum value).

SMILES: C=CC1(C)CC(OC(=O)CSc2nc(N)cc(N)n2)C2(C)C(C)CCC3(CCC(=O)C32)C(C)C1O (stereo not drawn) [DPTM, 14-O-[(4,6-Diaminopyrimidine-2-yl)thioacetyl] mutilin]
- Tmax (im, 10 mg/kg): 0.5 h
- Tmax (im, 25 mg/kg): 0.5 h
- Tmax (im, 75 mg/kg): 0.5 h
- bioavailability (im, i.m., 10 mg/kg): 68.2%
- MRT last (im, i.m., 10 mg/kg): 4.4 ± 0.3 h
- bioavailability (im, i.m., 25 mg/kg): 48.5%
- MRT last (im, i.m., 25 mg/kg): 4.8 ± 0.3 h
- CL renal (im, i.m., 75 mg/kg): 46.2 ± 3.8 mL/min
- bioavailability (im, i.m., 75 mg/kg): 15.8%
- MRT last (im, i.m., 75 mg/kg): 4.2 ± 0.8 h
- clearance (iv, 10 mg/kg): 0.3 L/h/kg
- Tmax (iv, 10 mg/kg): 0.08 h
- clearance (iv, 25 mg/kg): 0.1 L/h/kg
- Tmax (iv, 25 mg/kg): 0.08 h
- clearance (iv, 75 mg/kg): 0.03 L/h/kg
- Tmax (iv, 75 mg/kg): 0.083 h
- MRT last (iv, i.v., 10 mg/kg): 1 ± 0.2 h
- Vd (iv, i.v., 10 mg/kg): 0.3 ± 0.1 L/kg
- MRT last (iv, i.v., 25 mg/kg): 1.3 ± 0.7 h
- Vd (iv, i.v., 25 mg/kg): 0.2 L/kg
- CL renal (iv, i.v., 75 mg/kg): 97.6 ± 9.6 mL/min
- MRT last (iv, i.v., 75 mg/kg): 1.5 ± 0.4 h
- Vd (iv, i.v., 75 mg/kg): 0.03 L/kg
- Tmax (po, 10 mg/kg): 2 h
- Tmax (po, 25 mg/kg): 2 h
- Tmax (po, 75 mg/kg): 2 h
- bioavailability (po, p.o., 10 mg/kg): 22.9%
- MRT last (po, p.o., 10 mg/kg): 12.8 ± 0.1 h
- bioavailability (po, p.o., 25 mg/kg): 24.3%
- MRT last (po, p.o., 25 mg/kg): 9.8 ± 0.2 h
- CL renal (po, p.o., 75 mg/kg): 12.2 ± 1.3 mL/min
- bioavailability (po, p.o., 75 mg/kg): 4.17%
- MRT last (po, p.o., 75 mg/kg): 6.9 ± 0.4 h
- half-life (im, 10 mg/kg, i.m., 10 mg/kg, read-out: t1/2 (converted)): 3.5 h
- AUC(0-t) (im, 10 mg/kg, rat serum, i.m., 10 mg/kg, read-out: AUC0→t): 1.5 ± 0.1 µg·h/mL
- Cmax (im, 10 mg/kg, rat serum, i.m., 10 mg/kg, read-out: Cmax): 0.5 ± 0.1 µg/mL
- half-life (im, 25 mg/kg, i.m., 25 mg/kg, read-out: t1/2 (converted)): 3.2 ± 0.2 h
- AUC(0-t) (im, 25 mg/kg, rat serum, i.m., 25 mg/kg, read-out: AUC0→t): 2.6 ± 0.2 µg·h/mL
- Cmax (im, 25 mg/kg, rat serum, i.m., 25 mg/kg, read-out: Cmax): 0.7 ± 0.1 µg/mL
- half-life (im, 75 mg/kg, i.m., 75 mg/kg, read-out: t1/2 (converted)): 3.3 ± 0.3 h
- AUC(0-t) (im, 75 mg/kg, i.m., range over 10, 25 and 75 mg/kg doses, read-out: area under the curve from 0 to 48 h (AUC0→t)): 1.52 to 5.7 µg·h/mL
- half-life (im, 75 mg/kg, i.m., range over 10, 25 and 75 mg/kg doses, read-out: half-life (t1/2)): 3.23 to 3.49 h
- AUC(0-t) (im, 75 mg/kg, rat serum, i.m., 75 mg/kg, read-out: AUC0→t): 5.7 ± 0.2 µg·h/mL
- Cmax (im, 75 mg/kg, rat serum, i.m., 75 mg/kg, read-out: Cmax): 1.8 ± 0.1 µg/mL
- Cmax (im, range over 10, 25 and doses, read-out: maximum concentration (Cmax) of drug in serum): 0.47 to 1.83 µg/mL
- half-life (iv, 10 mg/kg, i.v., 10 mg/kg, read-out: t1/2 (converted)): 1.7 ± 0.1 h
- AUC(0-t) (iv, 10 mg/kg, rat serum, i.v., 10 mg/kg, read-out: AUC0→t): 2.2 ± 0.2 µg·h/mL
- Cmax (iv, 10 mg/kg, rat serum, i.v., 10 mg/kg, read-out: Cmax): 7.5 ± 0.4 µg/mL
- half-life (iv, 25 mg/kg, i.v., 25 mg/kg, read-out: t1/2 (converted)): 1.7 ± 0.4 h
- AUC(0-t) (iv, 25 mg/kg, rat serum, i.v., 25 mg/kg, read-out: AUC0→t): 5.4 ± 0.2 µg·h/mL
- Cmax (iv, 25 mg/kg, rat serum, i.v., 25 mg/kg, read-out: Cmax): 16 ± 0.5 µg/mL
- half-life (iv, 75 mg/kg, i.v., 75 mg/kg, read-out: t1/2 (converted)): 1.9 ± 0.5 h
- AUC(0-t) (iv, 75 mg/kg, i.v., range over 10, 25 and 75 mg/kg doses, read-out: area under the curve from 0 to 48 h (AUC0→t)): 2.23 to 36 µg·h/mL
- half-life (iv, 75 mg/kg, i.v., range over 10, 25 and 75 mg/kg doses, read-out: half-life (t1/2)): 1.7 to 1.86 h
- AUC(0-t) (iv, 75 mg/kg, rat serum, i.v., 75 mg/kg, read-out: AUC0→t): 36 ± 0.3 µg·h/mL
- Cmax (iv, 75 mg/kg, rat serum, i.v., 75 mg/kg, read-out: Cmax): 65.1 ± 0.8 µg/mL
- Cmax (iv, range over 10, 25 and doses, read-out: maximum concentration (Cmax) of drug in serum): 7.54 to 65.1 µg/mL
- half-life (po, 10 mg/kg, p.o., 10 mg/kg, read-out: t1/2 (converted)): 4.6 ± 0.1 h
- AUC(0-t) (po, 10 mg/kg, rat serum, p.o., 10 mg/kg, read-out: AUC0→t): 0.5 ± 0.1 µg·h/mL
- Cmax (po, 10 mg/kg, rat serum, p.o., 10 mg/kg, read-out: Cmax): 0.1 µg/mL
- half-life (po, 25 mg/kg, p.o., 25 mg/kg, read-out: t1/2 (converted)): 4.4 ± 0.2 h
- AUC(0-t) (po, 25 mg/kg, rat serum, p.o., 25 mg/kg, read-out: AUC0→t): 1.3 ± 0.1 µg·h/mL
- Cmax (po, 25 mg/kg, rat serum, p.o., 25 mg/kg, read-out: Cmax): 0.2 µg/mL
- half-life (po, 75 mg/kg, p.o., 75 mg/kg, read-out: t1/2 (converted)): 4.7 ± 0.4 h
- AUC(0-t) (po, 75 mg/kg, p.o., range over 10, 25 and 75 mg/kg doses, read-out: area under the curve from 0 to 48 h (AUC0→t)): 0.51 to 1.5 µg·h/mL
- half-life (po, 75 mg/kg, p.o., range over 10, 25 and 75 mg/kg doses, read-out: half-life (t1/2)): 4.38 to 4.7 h
- AUC(0-t) (po, 75 mg/kg, rat serum, p.o., 75 mg/kg, read-out: AUC0→t): 1.5 µg·h/mL
- Cmax (po, 75 mg/kg, rat serum, p.o., 75 mg/kg, read-out: Cmax): 0.3 ± 0.1 µg/mL
- Cmax (po, range over 10, 25 and doses, read-out: maximum concentration (Cmax) of drug in serum): 0.05 to 0.31 µg/mL
